Results reported in ChEMBL document CHEMBL5233266, “β-Carboline as a Privileged Scaffold for Multitarget Strategies in Alzheimer's Disease Therapy” (J Med Chem, 2021).
≈ marks a conversion by molar mass, not a printed value. Blank lines part the entries; values can stand above or below the compound they belong to.

Experiments:
[1] = biological target: cGMP-specific 3',5'-cyclic phosphodiesterase (Homo sapiens, UniProt O76074); experiment: Inhibition of PDE5 (unknown origin)
[2] = Aqueous solubility of compound; assay type: physicochemical; settings: water
[3] = biological target: Acetylcholinesterase (Homo sapiens, UniProt P22303); experiment: Inhibition of AChE (unknown origin)
[4] = biological target: T1, Gamma-aminobutyric acid receptor subunit alpha-5 (Homo sapiens, UniProt P31644); experiment: Inhibition of GABAA alpha5 receptor (unknown origin)
T1 sequence (P31644 whole entry): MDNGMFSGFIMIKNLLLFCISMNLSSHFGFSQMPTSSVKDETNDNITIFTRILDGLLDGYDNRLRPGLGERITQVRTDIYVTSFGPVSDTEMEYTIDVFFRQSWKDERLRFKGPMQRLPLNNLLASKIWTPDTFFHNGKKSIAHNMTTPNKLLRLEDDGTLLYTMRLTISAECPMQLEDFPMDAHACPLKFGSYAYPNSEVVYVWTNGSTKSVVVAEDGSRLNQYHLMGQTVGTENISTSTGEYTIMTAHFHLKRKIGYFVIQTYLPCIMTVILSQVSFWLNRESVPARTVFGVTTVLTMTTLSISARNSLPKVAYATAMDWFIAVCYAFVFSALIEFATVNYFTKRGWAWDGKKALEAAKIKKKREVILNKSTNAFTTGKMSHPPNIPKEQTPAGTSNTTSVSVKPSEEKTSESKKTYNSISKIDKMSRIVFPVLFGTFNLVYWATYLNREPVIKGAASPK

[5] = biological target: T2, Gamma-aminobutyric acid receptor subunit alpha-2 (Homo sapiens, UniProt P47869); experiment: Binding affinity to human recombinant GABAA alpha2 receptor assessed as inhibition constant incubated for 1 hrs by liquid scintillation counting analysis
T2 sequence (P47869 whole entry): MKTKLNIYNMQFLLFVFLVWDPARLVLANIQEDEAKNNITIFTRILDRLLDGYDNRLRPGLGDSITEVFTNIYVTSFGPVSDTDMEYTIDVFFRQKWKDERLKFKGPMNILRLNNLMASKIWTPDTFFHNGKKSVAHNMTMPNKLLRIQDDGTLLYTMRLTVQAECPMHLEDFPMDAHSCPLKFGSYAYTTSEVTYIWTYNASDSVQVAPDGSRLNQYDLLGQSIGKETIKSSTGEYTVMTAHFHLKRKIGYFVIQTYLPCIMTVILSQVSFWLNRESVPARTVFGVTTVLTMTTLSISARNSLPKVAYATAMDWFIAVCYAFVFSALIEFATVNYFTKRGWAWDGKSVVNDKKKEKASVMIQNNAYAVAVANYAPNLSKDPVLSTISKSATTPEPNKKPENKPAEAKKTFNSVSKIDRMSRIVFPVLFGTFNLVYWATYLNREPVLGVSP

[6] = biological target: T3, Gamma-aminobutyric acid receptor subunit alpha-3 (Homo sapiens, UniProt P34903); experiment: Binding affinity to human recombinant GABAA alpha3 receptor assessed as inhibition constant incubated for 1 hrs by liquid scintillation counting analysis
T3 sequence (P34903 whole entry): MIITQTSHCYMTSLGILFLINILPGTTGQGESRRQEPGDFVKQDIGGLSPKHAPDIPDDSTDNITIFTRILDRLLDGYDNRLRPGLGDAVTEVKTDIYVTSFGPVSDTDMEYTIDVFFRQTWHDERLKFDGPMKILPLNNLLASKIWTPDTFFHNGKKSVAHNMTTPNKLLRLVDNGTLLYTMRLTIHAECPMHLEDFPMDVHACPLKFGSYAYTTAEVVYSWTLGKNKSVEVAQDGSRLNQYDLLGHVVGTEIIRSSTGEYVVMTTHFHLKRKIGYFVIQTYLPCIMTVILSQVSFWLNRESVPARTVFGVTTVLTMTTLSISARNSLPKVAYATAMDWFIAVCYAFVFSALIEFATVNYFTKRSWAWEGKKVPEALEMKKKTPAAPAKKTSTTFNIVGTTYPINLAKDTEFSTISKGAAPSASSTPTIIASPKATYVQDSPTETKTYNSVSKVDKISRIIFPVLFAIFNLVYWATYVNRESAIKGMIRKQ

[7] = biological target: T4, Gamma-aminobutyric acid receptor subunit alpha-1 (Homo sapiens, UniProt P14867); experiment: Binding affinity to human recombinant GABAA alpha1 receptor assessed as inhibition constant incubated for 1 hrs by liquid scintillation counting analysis
T4 sequence (P14867 whole entry): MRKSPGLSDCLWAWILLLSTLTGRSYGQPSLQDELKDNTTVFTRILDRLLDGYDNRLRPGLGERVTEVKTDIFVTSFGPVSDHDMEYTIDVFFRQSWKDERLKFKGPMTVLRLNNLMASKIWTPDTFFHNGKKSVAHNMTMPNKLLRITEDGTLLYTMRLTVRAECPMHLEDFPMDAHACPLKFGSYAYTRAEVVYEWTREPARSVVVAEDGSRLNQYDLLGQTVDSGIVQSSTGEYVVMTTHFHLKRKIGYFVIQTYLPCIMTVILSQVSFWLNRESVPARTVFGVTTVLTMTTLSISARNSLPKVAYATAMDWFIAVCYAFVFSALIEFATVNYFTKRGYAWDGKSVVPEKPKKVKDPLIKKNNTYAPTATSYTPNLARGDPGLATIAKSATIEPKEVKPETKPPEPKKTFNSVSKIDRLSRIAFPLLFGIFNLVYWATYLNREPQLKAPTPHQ

[8] = biological target: T5, Gamma-aminobutyric acid receptor subunit alpha-6 (Homo sapiens, UniProt Q16445); experiment: Binding affinity to human recombinant GABAA alpha6 receptor assessed as inhibition constant incubated for 1 hrs by liquid scintillation counting analysis
[9] = biological target: T3, Gamma-aminobutyric acid receptor subunit alpha-3; experiment: Inhibition of GABAA alpha3 receptor (unknown origin)
[10] = biological target: T5, Gamma-aminobutyric acid receptor subunit alpha-6; experiment: Binding affinity to GABAA alpha6 receptor (unknown origin) assessed as inhibition constant
[11] = biological target: T2, Gamma-aminobutyric acid receptor subunit alpha-2; experiment: Inhibition of GABAA alpha2 receptor (unknown origin)
[12] = biological target: T1, Gamma-aminobutyric acid receptor subunit alpha-5; experiment: Binding affinity to human recombinant GABAA alpha5 receptor assessed as inhibition constant incubated for 1 hrs by liquid scintillation counting analysis
[13] = biological target: T4, Gamma-aminobutyric acid receptor subunit alpha-1; experiment: Inhibition of GABAA alpha1 receptor (unknown origin)
[14] = biological target: 5-hydroxytryptamine receptor 2C (Rattus norvegicus, UniProt P08909); experiment: Displacement of [3H]-ketanserin from rat 5-HT2C expressed in mouse NIH/3T3 cells assessed as inhibition constant by Cheng-Prusoff equation analysis; assay type: cell-based
[15] = biological target: GABA-A receptor; anion channel; experiment: Displacement of [3H]flunitrazepam from GABAA (unknown origin ) receptor by radioligand binding assay; assay type: protein-complex assay, Homo sapiens
[16] = biological target: 5-hydroxytryptamine receptor 2B (Homo sapiens, UniProt P41595); experiment: Binding affinity to 5-HT2B (unknown origin) assessed as equilibrium binding constant
[17] = biological target: 5-hydroxytryptamine receptor 2A (Rattus norvegicus, UniProt P14842); experiment: Displacement of [3H]-ketanserin from rat 5-HT2A expressed in mouse NIH/3T3 cells assessed as inhibition constant by Cheng-Prusoff equation analysis; assay type: cell-based
[18] = biological target: 5-hydroxytryptamine receptor 2B (Rattus norvegicus, UniProt P30994); experiment: Displacement of [3H]-ketanserin from rat 5-HT2B expressed in mouse NIH/3T3 cells assessed as inhibition constant by Cheng-Prusoff equation analysis; assay type: cell-based
[19] = biological target: Beta-secretase 1 (Homo sapiens, UniProt P56817); experiment: Inhibition of BACE1 (unknown origin) expressed in HEK293 cells by FRET assay; assay type: cell-based
[20] = biological target: Cholinesterase (Homo sapiens, UniProt P06276); experiment: Inhibition of BuChE (unknown origin)
[21] = biological target: Amyloid-beta precursor protein (Homo sapiens) (UniProt P05067); experiment: Inhibition of amyloid beta (unknown origin) aggregation at 20 uM relative to control
Sequence of Amyloid-beta precursor protein (Homo sapiens) (P05067 whole entry): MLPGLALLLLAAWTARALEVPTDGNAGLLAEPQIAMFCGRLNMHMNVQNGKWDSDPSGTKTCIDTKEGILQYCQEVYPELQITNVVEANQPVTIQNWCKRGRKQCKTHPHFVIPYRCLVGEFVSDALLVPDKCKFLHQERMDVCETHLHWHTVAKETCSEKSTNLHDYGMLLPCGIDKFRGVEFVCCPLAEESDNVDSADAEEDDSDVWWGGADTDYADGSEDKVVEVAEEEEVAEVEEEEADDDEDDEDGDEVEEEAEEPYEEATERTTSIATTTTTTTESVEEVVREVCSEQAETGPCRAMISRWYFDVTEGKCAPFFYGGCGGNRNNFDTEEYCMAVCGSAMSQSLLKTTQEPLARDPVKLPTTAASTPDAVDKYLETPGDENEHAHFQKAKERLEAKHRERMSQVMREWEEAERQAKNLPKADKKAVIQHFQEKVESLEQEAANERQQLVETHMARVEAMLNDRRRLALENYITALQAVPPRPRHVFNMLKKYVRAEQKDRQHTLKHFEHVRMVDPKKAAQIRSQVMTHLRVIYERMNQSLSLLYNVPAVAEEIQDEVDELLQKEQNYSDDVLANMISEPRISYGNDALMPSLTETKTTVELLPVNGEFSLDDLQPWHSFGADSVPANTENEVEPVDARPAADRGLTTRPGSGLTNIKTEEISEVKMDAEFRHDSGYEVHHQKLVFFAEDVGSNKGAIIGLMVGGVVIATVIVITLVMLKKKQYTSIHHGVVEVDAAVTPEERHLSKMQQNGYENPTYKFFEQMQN

T5 sequence (Q16445 whole entry): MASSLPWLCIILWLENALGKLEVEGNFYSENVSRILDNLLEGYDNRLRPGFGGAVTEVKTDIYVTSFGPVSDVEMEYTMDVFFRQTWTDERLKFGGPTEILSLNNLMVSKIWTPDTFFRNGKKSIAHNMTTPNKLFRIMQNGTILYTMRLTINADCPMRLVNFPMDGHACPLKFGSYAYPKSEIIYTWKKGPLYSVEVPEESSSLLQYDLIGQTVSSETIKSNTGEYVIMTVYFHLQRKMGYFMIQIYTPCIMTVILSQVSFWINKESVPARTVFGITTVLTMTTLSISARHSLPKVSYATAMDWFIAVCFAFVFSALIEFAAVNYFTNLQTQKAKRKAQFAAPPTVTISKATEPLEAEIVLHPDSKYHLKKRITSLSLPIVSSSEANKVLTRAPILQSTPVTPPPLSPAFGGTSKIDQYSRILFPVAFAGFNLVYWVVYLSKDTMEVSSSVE
Sequence of 5-hydroxytryptamine receptor 2C (P08909 whole entry): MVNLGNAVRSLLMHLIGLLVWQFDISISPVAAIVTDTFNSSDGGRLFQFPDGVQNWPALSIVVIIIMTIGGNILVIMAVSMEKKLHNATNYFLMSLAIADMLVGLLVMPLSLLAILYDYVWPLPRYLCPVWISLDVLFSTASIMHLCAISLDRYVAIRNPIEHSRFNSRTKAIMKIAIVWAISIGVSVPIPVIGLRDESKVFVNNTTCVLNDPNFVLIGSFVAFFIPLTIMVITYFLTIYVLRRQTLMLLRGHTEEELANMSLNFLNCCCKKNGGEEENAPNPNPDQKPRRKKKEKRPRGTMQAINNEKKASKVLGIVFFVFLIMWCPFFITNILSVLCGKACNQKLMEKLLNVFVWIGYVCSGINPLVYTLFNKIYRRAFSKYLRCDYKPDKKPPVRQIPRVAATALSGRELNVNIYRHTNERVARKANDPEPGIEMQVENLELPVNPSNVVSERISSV
Sequence of 5-hydroxytryptamine receptor 2B (Homo sapiens, UniProt P41595) (P41595 whole entry): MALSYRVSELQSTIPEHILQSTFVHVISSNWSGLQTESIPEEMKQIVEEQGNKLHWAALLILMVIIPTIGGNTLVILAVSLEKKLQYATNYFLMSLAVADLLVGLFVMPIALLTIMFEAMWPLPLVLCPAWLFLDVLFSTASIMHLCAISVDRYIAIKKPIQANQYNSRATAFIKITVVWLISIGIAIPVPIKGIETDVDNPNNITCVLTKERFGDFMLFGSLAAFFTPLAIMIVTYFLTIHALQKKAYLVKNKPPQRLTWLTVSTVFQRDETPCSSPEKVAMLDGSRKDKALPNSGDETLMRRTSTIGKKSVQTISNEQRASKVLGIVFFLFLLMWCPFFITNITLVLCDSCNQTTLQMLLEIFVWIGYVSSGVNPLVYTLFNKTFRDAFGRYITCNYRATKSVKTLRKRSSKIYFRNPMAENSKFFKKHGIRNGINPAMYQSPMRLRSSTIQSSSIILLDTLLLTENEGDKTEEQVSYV
Sequence of Acetylcholinesterase (P22303 whole entry): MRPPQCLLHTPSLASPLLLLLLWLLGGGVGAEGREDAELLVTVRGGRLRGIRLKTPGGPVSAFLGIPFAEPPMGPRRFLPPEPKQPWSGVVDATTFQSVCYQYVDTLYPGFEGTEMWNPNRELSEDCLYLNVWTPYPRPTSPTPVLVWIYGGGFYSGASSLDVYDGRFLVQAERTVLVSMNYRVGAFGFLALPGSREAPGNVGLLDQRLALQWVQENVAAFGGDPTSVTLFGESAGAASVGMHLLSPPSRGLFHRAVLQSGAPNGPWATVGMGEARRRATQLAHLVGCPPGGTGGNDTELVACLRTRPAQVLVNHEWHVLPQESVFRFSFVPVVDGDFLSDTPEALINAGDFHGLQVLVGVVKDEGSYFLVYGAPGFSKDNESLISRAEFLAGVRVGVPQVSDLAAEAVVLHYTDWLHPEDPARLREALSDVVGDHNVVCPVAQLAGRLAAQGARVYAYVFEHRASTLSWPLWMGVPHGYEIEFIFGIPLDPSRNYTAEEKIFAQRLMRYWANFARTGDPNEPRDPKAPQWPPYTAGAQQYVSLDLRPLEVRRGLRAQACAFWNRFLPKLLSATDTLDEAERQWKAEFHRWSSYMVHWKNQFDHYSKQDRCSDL
Sequence of 5-hydroxytryptamine receptor 2B (Rattus norvegicus, UniProt P30994) (P30994 whole entry): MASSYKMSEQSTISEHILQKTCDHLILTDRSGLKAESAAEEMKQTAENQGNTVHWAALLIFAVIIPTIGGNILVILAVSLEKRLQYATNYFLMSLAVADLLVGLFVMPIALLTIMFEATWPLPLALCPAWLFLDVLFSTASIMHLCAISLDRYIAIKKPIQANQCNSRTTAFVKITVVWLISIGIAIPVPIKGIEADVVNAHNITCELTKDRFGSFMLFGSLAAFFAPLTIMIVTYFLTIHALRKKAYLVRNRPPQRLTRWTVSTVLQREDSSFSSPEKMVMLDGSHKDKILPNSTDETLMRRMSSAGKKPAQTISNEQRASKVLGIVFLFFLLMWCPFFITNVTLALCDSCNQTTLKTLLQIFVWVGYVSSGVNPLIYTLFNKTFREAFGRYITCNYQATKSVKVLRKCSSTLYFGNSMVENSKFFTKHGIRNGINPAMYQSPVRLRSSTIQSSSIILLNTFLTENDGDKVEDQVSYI
Sequence of Cholinesterase (P06276 whole entry): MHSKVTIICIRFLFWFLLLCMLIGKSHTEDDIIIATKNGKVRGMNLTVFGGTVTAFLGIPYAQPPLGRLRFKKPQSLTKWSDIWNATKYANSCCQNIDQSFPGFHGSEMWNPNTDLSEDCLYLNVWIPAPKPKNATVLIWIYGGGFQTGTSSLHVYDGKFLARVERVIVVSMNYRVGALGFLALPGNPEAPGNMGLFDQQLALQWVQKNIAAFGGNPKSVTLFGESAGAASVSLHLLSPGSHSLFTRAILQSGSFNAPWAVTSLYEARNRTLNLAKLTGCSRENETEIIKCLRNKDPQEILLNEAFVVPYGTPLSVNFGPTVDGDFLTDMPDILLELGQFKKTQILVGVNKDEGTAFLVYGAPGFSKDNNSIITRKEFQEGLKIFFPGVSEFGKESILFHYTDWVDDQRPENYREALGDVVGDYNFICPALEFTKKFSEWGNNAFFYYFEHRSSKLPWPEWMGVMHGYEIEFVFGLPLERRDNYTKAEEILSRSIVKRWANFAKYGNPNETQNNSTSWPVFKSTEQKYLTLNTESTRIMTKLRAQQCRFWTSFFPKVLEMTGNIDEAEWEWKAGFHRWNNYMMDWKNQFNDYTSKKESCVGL
Sequence of 5-hydroxytryptamine receptor 2A (P14842 whole entry): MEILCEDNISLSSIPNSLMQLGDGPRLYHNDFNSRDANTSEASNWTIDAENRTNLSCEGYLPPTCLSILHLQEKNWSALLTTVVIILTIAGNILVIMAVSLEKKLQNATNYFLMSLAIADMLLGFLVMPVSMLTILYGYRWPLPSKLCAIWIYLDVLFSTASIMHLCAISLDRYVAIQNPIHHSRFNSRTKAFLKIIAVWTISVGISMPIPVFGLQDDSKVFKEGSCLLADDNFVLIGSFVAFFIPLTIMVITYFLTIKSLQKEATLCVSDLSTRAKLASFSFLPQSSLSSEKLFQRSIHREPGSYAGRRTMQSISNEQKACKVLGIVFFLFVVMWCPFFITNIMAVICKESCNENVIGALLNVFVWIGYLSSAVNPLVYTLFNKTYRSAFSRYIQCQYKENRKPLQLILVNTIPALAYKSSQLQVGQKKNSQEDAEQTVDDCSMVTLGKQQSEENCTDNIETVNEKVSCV
Sequence of Beta-secretase 1 (P56817 whole entry): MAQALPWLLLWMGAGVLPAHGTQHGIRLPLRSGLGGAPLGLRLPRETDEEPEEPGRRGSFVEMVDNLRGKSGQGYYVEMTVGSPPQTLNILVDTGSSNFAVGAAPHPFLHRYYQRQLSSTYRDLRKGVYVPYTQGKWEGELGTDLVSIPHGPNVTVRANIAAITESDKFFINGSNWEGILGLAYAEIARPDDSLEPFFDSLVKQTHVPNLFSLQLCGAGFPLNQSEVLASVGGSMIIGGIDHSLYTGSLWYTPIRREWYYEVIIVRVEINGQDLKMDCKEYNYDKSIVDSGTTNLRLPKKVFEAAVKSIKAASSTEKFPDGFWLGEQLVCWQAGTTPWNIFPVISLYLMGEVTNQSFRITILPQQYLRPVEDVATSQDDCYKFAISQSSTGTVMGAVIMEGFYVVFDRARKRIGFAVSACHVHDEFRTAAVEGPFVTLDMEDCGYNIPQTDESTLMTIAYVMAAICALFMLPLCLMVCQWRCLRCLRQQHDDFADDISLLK

- IC50 [4]: 200 nM
- Ki [5]: 12 nM
- Ki [6]: 16 nM
- Ki [7]: 2 nM
- Ki [8]: > 10000 nM
- IC50 [9]: 16 nM
- Ki [10]: > 10000 nM
- IC50 [11]: 12 nM
- Ki [12]: 200 nM
- IC50 [13]: 2 nM
SMILES: c1ccc2c(c1)[nH]c1cnc3c4cccnc4[nH]c3c12

- IC50 [19]: 17000 nM
SMILES: OC[C@@H]1Cc2c([nH]c3ccccc23)CN1Cc1cn(C[C@@H]2Cc3c([nH]c4ccccc34)CN2)nn1

- IC50 [4]: 240 nM
- Ki [5]: 24 nM
- Ki [6]: 31 nM
- Ki [7]: 3 nM
- Ki [8]: > 10000 nM
- IC50 [9]: 31 nM
- Ki [10]: > 10000 nM
- IC50 [11]: 24 nM
- Ki [12]: 240 nM
- IC50 [13]: 3 nM
SMILES: c1ccc2c(c1)[nH]c1cnc3c4ccncc4[nH]c3c12

Continued, compound first:

SMILES: COc1ccc([C@@H]2c3[nH]c4ccccc4c3C[C@@H]3C(=O)N(CCC4CCN(Cc5ccccc5)CC4)CC(=O)N23)cc1
- IC50 [1]: 200 nM
- solubility [2]: 1400 µg/mL (≈ 2490 µM)
- IC50 [3]: 31 nM

SMILES: COc1ccc2c3c([nH]c2c1)C(C)NCC3 (stereo not drawn)
- Ki [14]: > 10000 nM
- IC50 [15]: > 100000 nM

SMILES: COc1ccc(CC2NCCc3c2[nH]c2c(C)c(C)ccc32)c(Br)c1OC (stereo not drawn)
- Kb [16]: 0.08 nM
- Ki [14]: 8 nM
- Ki [17]: 9 nM
- Ki [18]: 0.08 nM

SMILES: CC1c2[nH]c3ccccc3c2CCN1C(=O)/C=C/c1ccc(O)c(O)c1 (stereo not drawn)
- IC50 [20]: 1300 nM
- inhibition [21]: 72%
- IC50 [3]: 21000 nM
